Source: US20220030866A1, “CONJUGATES OF AUXIN ANALOGS” (The State of Israel, Ministry of Agriculture & Rural …, priority 2019, published 2022)
Marks after values point to notes of the source that are not given here.

Columns and labels:
Format in all cases: in vivo
[1] = system: argan (Argania spinosa) cuttings; test: rooting of argan cuttings; conditions: 100 μM conjugate with 6000 ppm IBA
Protocol: The ability of exemplary conjugates to promote rooting in plants which are recalcitrant to rooting (in addition to the results obtained with Eucalyptus grandis in Example 3) was examined using cuttings of argan (Argania spinosa) and jojoba (Simmondsia chinensis) in a commercial nursery (Shorashim). The argan and jojoba cuttings were treated with 100 μM of a conjugate (any of Compounds 10-1t) with 6000 ppm IBA. The common treatment T-8 (talc with 8000 ppm IBA and a fungicide) or 6000 ppm IBA (without conjugate) served as a control.
Exemplary conjugates were also tested for rooting the hard-to-root species of avocado (VC801 rootstock) and argan, according to procedures described hereinabove.

[2] = system: cuttings from mature Eucalyptus grandis trees; test: rooting of cuttings from mature Eucalyptus grandis trees; conditions: for appearance of the roots compared with IBA alone: 6000 ppm IBA with 100 μM compound
Method in brief: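 Cuttings (12-15 cm, two upper leaves halved) from branches of 8-year-old net-house plants; bases dipped 1 min in 6000 ppm IBA potassium salt plus 50 μM conjugate, leaves sprayed with 50 μM conjugate in 0.5% Triton X-100. Rooted at 25° C, 90% humidity, peat:vermiculite:polystyrene 1:2:3; rooting scored after 30-60 days.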

[3] = system: Pinus halepensis cuttings; test: rooting and root development in pine cuttings; conditions: 400 ppm IBA potassium salt + 5 ppm conjugate, 4 hours dip; 12 weeks
Protocol: The effects of exemplary D-amino acid conjugates of 4-CPA (Compounds to and Is) on rooting in Pinus halepensis cuttings were compared with those of 2-DP-glycine methyl ester conjugate (2-DP-Gly). Rooting mature pine cuttings (i.e., cuttings that are taken from trees more than 4 years old) is very difficult.
Apical cuttings were taken from 7-year-old trees, stored for 4 weeks at 4° C., and treated by dipping the cutting bases for 4 hours in the following solution: 400 ppm IBA potassium salt+5 ppm tested conjugate+0.1% Amistar™ fungicide (250 grams/liter azoxystrobin). The cuttings were evaluated after 12 weeks.

[4] = system: Eucalyptus brachyphylla cuttings; test: rooting of Eucalyptus brachyphylla cuttings; conditions: for mean root number per cutting, E. brachyphylla: K-IBA alone or with 100 μM compound; for mean root length, E. brachyphylla, relative to IBA alone, in words: K-IBA with 100 μM compound
Protocol: In order to investigate cloning of productive eucalyptus trees from cuttings, branches were excised from mature Eucalyptus x trabutii and Eucalyptus brachyphylla trees the field (in Kfar Pines, Israel)—selected based on their exceptional nectar production and honeybee attraction—placed in a humidified cooler box and brought to a climate-controlled greenhouse within 2 hours. Each cutting, 7 cm long, included three nodes with only two leaves remaining at its apical end. Two-thirds of each blade was excised to minimize evapotranspiration. The cutting bases were submerged for 1 minute in 6 grams/liter indole-3-butyric acid potassium salt (K-IBA), optionally supplemented with Compound 1s or 1t at a concentration of 100 μM. In addition, the leaves were sprayed with 100 μM of each compound in the presence of 0.05% Triton X-100 surfactant. Stock solutions of Compounds 1s and 1t were at a concentration of 100 mM in DMSO. The cuttings were planted in rooting medium containing peat, vermiculite and polystyrene flakes at a ratio of 1:2:3 respectively, on a heated rooting table under 90% humidity. Fungicides were applied to the rooting media on a weekly basis. Rooting percentage, number of roots per cutting and root length were measured after 1 and 2 weeks and after 1 and 2 months.

[5] = system: cuttings from mature Eucalyptus grandis trees; test: rooting of cuttings from mature Eucalyptus grandis trees; conditions: 100 μM compound by submerging or spraying, with 6000 ppm IBA
[6] = IBA with 100 μM compound, submersion and spraying

Which results are given for `COC(=O)[C@@H](Cc1c[nH]c2ccccc12)NC(=O)COc1ccc(Cl)cc1` [Compound 1s, 4-CPA-D-Trp]?
rooting percentage in argan compared with IBA alone, in words [1]: considerably higher rooting percentages; appearance of the roots compared with IBA alone ([2]; submersion and spraying): appeared more branched; Degree of root development Medium (%) [3]: 0%; Degree of root development Weak (%) [3]: 6.2%; Degree of root development Well-developed (%) [3]: 81.3* %; Rooting rate (%) [3]: 92.9%; mean root number per cutting, E. brachyphylla [4]: about 2; mean root length, E. brachyphylla, relative to IBA alone, in words [4]: enhanced mean root length

`COC(=O)[C@H](Cc1c[nH]c2ccccc12)NC(=O)COc1ccc(Cl)cc1` [Compound 1t, 4-CPA-L-Trp] was tested. Which “rooting percentage in argan compared with IBA alone, in words” value [1] did it give?
Its value is “considerably higher rooting percentages”.

And the “rooting in combination with IBA compared with IBA alone, in words” value [5]?
The value was “at least as potent as that of their corresponding D-amino acid conjugates”.

And the “percentage of adventitious root formation (rooting)” value ([2]; 6000 ppm IBA and 100 μM conjugate by submersion of base plus spraying of foliage)?
The value was 51±7%.

And the “appearance of the roots compared with IBA alone” value ([2]; submersion and spraying)?
The value was “appeared more branched”.

What about the “number of root tips compared with IBA alone (WinRHIZO)” value [2, 6] of the same compound?
Its value is “considerably enhanced the number of root tips”.

What about the “total root length compared with IBA alone (WinRHIZO)” value [2, 6] of the same compound?
Its value is “considerably enhanced the total root length”.

And the “mean root number per cutting, E. brachyphylla” value [4]?
Its value is “about 2”.

What about the “mean root length, E. brachyphylla, relative to IBA alone, in words” value [4] of the same compound?
The value was “enhanced mean root length”.

With `O=C(O)COc1ccc(Cl)cc1` [Compound 4-CPA, 4-chloro-phenoxyacetic acid, reference compound] as the compound, how does the “rooting in combination with IBA compared with IBA alone, in words” value [5] read?
Its value is “considerably less effective”.
